In data set [1] the target is T1, CFTR (Mus musculus, UniProt P26361).
T1 construct: a full-thickness fragment is mounted in a micro-Ussing chamber; from tissue; host or cells: CD1 mouse colon, full-thickness fragment
The experiment in a line: Short-circuit current measurement in mouse distal colon (ex vivo). The source says: For intestinal short-circuit current measurement, CD1 mice are anesthetized with isoflurane. The colon is removed, washed with ice-cold Krebs buffer, opened along the mesenteric border, and a full-thickness fragment is mounted in a micro-Ussing chamber (area 0.7 cm^2, World Precision Instruments). Hemichambers are filled with oxygenated Krebs-bicarbonate solution.

The target of data set [2] is T1, CFTR. In words: CDCA-induced fluid secretion in closed intestinal loops in mice. Format: in vivo. The settings on record: for reduction in loop fluid accumulation: 5 mg/kg intraperitoneally 60 min before. The protocol: CD1 mice (age 8-10 weeks) are given access to 5% dextrose water but not solid food for 24 h before experiments. Mice are administered (R)-BPO-27 (5 mg/kg) or vehicle (5% DMSO, 10% Kolliphor HS in saline) intraperitoneally 60 min before creation of closed intestinal (mid-jejunal or distal colonic) loops and injection of CDCA or PBS vehicle. […] See Cil, O., et al. (2017) Benzopyrimido-pyrrolo-oxazine-dione CFTR inhibitor (R)-BPO-27 for antisecretory therapy of diarrheas caused by bacterial enterotoxins. FASEB J 31, 751-760. For creation of loops, mice are anesthetized with isoflurane, and body temperature is maintained during surgery at 36-38° C. using a heating pad. A small abdominal incision is made to expose the intestine. For the mid-jejunal closed-loop model, 2-3 cm loops are created by sutures. Loops are injected with 100 μl PBS containing CDCA or PBS vehicle. The abdominal incision is closed with sutures, and mice are allowed to recover from anesthesia. In the colonic closed-loop model, mice are given an enema (500 μl of mineral oil) 12 hours before surgery to cleanse the colon of solids as previously reported (Haggie, P. M., et al. (2018) SLC26A3 inhibitor identified in small molecule screen blocks colonic fluid absorption and reduces constipation. JCI Insight 3, e121370) and a 1-2 cm closed loop is created by sutures. Intestinal loops are surgically removed at specified times, and loop length and weight is measured to quantify fluid secretion. In some experiments, CF mice (ΔF508 homozygous, age 8-10 weeks) are used.

The target of data set [3] is T2, CFTR (Rattus norvegicus, UniProt P34158).
T2 construct: from tissue; host or cells: Sprague-Dawley rats in vivo, colon
T2 sequence (P34158 whole entry): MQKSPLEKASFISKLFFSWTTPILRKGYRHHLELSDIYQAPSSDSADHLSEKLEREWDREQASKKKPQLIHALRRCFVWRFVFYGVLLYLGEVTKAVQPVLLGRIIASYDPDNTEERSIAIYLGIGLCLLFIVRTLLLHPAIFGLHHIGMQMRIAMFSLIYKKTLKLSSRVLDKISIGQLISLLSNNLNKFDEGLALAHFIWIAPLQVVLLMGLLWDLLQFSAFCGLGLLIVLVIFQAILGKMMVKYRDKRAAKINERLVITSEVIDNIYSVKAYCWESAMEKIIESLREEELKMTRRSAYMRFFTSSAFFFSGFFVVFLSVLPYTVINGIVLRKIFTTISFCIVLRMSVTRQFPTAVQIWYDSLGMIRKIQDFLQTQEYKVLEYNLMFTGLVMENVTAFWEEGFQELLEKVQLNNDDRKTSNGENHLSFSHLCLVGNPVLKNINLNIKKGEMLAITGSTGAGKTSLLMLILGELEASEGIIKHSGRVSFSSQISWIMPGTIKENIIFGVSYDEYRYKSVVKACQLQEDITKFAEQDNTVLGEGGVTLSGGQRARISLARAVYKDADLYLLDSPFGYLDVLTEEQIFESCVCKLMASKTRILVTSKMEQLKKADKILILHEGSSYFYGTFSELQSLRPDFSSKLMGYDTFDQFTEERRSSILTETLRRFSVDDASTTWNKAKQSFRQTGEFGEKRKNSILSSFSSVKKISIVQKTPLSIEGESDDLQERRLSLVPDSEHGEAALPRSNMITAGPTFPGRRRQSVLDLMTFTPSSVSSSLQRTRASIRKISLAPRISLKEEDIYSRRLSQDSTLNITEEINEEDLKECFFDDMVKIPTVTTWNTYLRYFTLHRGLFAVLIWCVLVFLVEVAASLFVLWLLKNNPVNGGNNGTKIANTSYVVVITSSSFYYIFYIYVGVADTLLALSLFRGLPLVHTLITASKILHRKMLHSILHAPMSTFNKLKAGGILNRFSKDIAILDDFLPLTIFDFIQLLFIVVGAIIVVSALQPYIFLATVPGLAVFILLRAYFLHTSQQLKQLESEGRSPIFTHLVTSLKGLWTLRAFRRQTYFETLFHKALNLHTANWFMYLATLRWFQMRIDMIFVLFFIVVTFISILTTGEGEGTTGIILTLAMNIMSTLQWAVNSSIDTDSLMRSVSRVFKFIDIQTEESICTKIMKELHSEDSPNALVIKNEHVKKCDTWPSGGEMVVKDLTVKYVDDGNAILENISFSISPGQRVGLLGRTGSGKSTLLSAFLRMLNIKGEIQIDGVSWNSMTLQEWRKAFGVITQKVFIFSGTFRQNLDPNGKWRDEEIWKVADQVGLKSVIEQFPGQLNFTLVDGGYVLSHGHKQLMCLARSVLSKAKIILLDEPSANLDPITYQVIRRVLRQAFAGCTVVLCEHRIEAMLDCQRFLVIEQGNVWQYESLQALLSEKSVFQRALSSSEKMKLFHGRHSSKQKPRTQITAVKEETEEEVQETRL
In words: Rat model of bile acid diarrhea (mid-colonic CDCA infusion). Format: in vivo. The protocol:
Female Sprague-Dawley rats (age 8-10 weeks) are administered 500 μl CDCA (10 mM in PBS) or PBS vehicle by a mid-colonic infusion using a flexible plastic tube (15 gauge, 78 mm length, Instech Laboratories, Plymouth Meeting, Pa.). Rats are intraperitoneally administered (R)-BPO-27 (10 mg/kg) (or vehicle control) 30 min before infusion. (R)-BPO-27 is dissolved in saline containing 5% DMSO and 10% Kolliphor HS. Following the infusion, rats are placed individually in metabolic cages and given free access to water and food. Stool samples are collected prior to infusion (for baseline stool water content) and over 4 hours after the infusion. Stools are weighed immediately when visualized to determine wet weight. To determine stool water content, the stool samples are dried at 70° C. for 24 hours and water content is calculated as (wet weight−dry weight)/wet weight.

For data set [4] the following is noted: mice; 5 mg/kg intraperitoneally; cited from earlier work.
The target of data set [5] is T3, CFTR (Homo sapiens, UniProt P13569). In words: Short-circuit current measurements in T84 cells (bile acid-induced secretory current). Format: cell-based. The note with it: for block of the increase in short-circuit current following CDCA application: CDCA 0.75 mM both bathing solutions, inhibitor 10 μM; for prosecretory response (increase in short-circuit current) to bile acid: bile acid added to both apical and basolateral bathing solutions. Set-up: short-circuit current provides a direct measure of apical CFTR Cl^− current; host or cells: T84 cells. The protocol:
T84 cells (ATCC CCL-248) are cultured in a 1:1 mixture of DMEM/Ham's F-12 medium supplemented with 10% FBS, 100 U/mL penicillin and 100 μg/mL streptomycin. Cells are grown on Snapwell inserts (Costar Corning, Horseheads, N.Y.) at 37° C. in 5% CO2/95% air and used 7-14 days after plating.
T84 cells are mounted in Ussing chambers and bathed in symmetrical HCO3^−-buffered solution containing (in mM): 120 NaCl, 5 KCl, 1 MgCl2, 1 CaCl2), 10 D-glucose, 5 HEPES and 25 NaHCO3 (pH 7.4). The solutions are aerated with 95% O2/5% CO2 and maintained at 37° C. In one study, for measurement of apical Cl^− conductance, a basolateral to apical Cl^− gradient is applied in which the basolateral hemichamber contains (in mM): 120 NaCl, 1 MgCl2, 1 CaCl2, 10 D-glucose, 5 HEPES and 25 NaHCO3 (pH 7.4); in the apical solution 120 mM NaCl is replaced by 5 mM NaCl and 115 mM Na-gluconate, and the basolateral membrane is permeabilized with 250 µg/ml amphotericin B. Short-circuit current is measured using an EVC4000 multichannel voltage clamp (World Precision Instruments, Sarasota, Fla.).

The target in data set [6] is T3, CFTR. The experiment in a line: Short-circuit current in primary human colonoid monolayer cultures. Format: cell-based. Set-up: Human cultures are generated from isolated intestinal crypts embedded in Matrigel; endogenous in cells; host or cells: primary human colonoid monolayers from three subjects. The note with it: human colonoid monolayers. The source says:
Human colonoid cultures are generated from de-identified tissue samples (other than age and sex) obtained from endoscopic or surgical procedures from three different subjects. Human cultures are generated from isolated intestinal crypts embedded in Matrigel (Corning, Tewksbury, Mass.) in 24-well plates and cultured in the presence of Wnt3A, R-spondin-1 and Noggin containing undifferentiated media (UDM) as described in Zachos, N. C. et. al (2016) Human enteroids/colonoids and intestinal organoids functionally recapitulate normal intestinal physiology and pathophysiology. J Biol Chem 291, 3759-3766; In, J., et al. (2016) Enterohemorrhagic Escherichia coli reduce mucus and intermicrovillar bridges in human stem cell-derived colonoids. Cell Mol Gastroenterol Hepatol 2, 48-62. Matrigel cultures in UDM media are used for the propagation of colonoids. To generate monolayer cultures, colonoids are triturated in Cultrex Organoid Harvesting Solution (Trevigen, Gaithersburg, Md.), and the fragments are collected by centrifugation and resuspended in UDM. Colonoid fragments (100 μL) are seeded onto 0.4 μm pore polyester membrane 24-well cell culture inserts (Transwell; Corning, Tewksbury, Mass.) pre-coated with human collagen IV (34 μg/mL; Millipore Sigma). […] Under these conditions, cultures reach confluency in 7-14 days as monitored by transepithelial resistance. […]

The test system of data set [7] is T84 cells. In words: Intracellular Ca2+ measurement by Fluo-4 fluorescence in T84 cells. Format: cell-based. The settings on record: CDCA 0.75 or 1 mM, ATP or carbachol 100 μM, BAPTA-AM 30 μM pretreatment 30 min. The protocol: T84 cells are plated in 96-well black-walled microplates. Confluent cells are loaded with Fluo-4 NW (Invitrogen, Carlsbad, Calif.) at 72 h after plating. For Ca^2+ measurement Fluo-4 fluorescence is measured with a FluoStar fluorescence plate reader (BMG Lab Technologies, Durham, N.C.) at excitation/emission wavelengths of 485/538 nm. In some studies cells are pretreated for 30 min with BAPTA-AM. Ca^2+ measurement in human colonoid cultures is done in monolayers that are transduced with the fluorescent Ca^2+ sensor Adeno-GCsMP6s. For cAMP assay, T84 cells are grown in 24-well plates, treated for 30 min with CDCA and/or forskolin, lysed by repeating freeze/thaw, centrifuged to remove cell debris, and the supernatant is assayed for cAMP using the Parameter cAMP immunoassay kit according to the manufacturer's instructions (R&D Systems, Minneapolis, […].).

[8] abbreviates: closed mid-jejunal loops, CDCA 10 mM.

T3 sequence (P13569 whole entry): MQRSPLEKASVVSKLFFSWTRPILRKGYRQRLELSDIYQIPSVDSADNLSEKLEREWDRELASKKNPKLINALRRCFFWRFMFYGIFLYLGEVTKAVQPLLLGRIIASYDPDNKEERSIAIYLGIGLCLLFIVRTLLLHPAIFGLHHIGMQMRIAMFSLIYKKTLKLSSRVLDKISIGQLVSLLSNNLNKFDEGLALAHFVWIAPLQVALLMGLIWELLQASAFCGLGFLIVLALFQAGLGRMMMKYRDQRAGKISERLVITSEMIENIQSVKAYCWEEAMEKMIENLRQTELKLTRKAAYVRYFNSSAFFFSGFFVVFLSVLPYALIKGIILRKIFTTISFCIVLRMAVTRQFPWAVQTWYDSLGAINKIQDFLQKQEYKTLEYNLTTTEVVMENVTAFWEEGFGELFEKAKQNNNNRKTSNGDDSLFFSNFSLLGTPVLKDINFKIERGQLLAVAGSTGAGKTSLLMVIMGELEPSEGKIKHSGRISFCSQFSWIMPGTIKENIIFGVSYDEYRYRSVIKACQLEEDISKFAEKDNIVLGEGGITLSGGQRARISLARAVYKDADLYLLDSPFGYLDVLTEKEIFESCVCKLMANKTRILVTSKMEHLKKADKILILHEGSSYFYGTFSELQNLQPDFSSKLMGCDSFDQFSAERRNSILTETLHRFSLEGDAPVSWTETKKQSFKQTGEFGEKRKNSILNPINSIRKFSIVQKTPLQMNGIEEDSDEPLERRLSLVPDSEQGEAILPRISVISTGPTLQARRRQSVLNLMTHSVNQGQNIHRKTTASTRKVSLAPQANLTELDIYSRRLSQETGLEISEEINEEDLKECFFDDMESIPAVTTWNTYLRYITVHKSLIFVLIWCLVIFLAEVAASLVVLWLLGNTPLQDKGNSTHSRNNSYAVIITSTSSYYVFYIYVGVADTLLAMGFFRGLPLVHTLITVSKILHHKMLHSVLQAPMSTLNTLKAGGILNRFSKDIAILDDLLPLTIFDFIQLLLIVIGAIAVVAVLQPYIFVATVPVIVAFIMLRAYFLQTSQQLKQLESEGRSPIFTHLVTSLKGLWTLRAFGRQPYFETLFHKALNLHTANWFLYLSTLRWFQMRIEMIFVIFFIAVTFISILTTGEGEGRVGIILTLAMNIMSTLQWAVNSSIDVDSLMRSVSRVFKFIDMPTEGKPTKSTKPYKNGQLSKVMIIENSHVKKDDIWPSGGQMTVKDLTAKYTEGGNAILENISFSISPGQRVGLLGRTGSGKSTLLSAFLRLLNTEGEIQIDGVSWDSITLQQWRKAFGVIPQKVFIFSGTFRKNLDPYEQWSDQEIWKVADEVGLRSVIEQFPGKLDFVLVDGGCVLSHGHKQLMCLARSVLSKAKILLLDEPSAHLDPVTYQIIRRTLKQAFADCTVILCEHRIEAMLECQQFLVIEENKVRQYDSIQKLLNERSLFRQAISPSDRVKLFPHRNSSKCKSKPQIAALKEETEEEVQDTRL
T1 sequence (P26361 whole entry, the tested form may be a part): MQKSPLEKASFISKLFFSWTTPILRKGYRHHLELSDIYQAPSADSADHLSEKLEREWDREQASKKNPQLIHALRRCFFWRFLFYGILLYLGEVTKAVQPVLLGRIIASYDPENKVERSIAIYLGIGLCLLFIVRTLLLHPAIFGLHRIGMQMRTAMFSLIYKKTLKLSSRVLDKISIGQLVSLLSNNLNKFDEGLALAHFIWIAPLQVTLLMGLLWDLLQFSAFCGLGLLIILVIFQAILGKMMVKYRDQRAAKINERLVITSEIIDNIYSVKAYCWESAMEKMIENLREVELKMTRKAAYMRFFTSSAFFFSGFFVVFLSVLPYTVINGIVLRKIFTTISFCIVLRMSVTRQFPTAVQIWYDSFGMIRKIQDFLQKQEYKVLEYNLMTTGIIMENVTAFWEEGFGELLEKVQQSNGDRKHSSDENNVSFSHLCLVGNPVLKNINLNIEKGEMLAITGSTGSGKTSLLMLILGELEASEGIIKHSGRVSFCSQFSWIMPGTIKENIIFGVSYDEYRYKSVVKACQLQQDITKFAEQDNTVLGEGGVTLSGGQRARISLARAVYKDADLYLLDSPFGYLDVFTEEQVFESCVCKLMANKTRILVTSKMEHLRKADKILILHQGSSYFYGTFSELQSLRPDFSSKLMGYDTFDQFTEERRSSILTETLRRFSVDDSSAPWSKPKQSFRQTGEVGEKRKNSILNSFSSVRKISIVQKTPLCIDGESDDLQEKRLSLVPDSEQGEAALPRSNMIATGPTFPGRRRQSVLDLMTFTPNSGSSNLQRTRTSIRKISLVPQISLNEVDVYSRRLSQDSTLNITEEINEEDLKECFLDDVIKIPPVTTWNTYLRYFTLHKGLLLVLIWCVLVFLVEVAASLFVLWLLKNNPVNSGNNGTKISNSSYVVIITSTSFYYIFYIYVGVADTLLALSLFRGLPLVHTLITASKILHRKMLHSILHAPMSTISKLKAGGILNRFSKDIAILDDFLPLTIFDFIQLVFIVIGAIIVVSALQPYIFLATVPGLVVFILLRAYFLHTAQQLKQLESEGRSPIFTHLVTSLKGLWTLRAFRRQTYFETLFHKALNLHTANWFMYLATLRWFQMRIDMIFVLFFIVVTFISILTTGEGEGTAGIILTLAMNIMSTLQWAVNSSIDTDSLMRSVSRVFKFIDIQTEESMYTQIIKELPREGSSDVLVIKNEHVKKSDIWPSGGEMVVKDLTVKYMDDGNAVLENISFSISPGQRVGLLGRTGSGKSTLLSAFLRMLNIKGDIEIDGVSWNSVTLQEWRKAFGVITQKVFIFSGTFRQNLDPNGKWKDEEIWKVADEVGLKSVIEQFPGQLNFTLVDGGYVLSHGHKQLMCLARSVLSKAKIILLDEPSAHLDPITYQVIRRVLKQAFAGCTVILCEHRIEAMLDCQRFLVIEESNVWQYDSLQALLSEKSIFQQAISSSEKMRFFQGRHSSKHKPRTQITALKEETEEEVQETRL

For the molecule `Cn1c(=O)c2c(-c3ccccc3)n3c(c2n(C)c1=O)[C@H](c1ccc(Br)o1)Oc1ccc(C(=O)O)cc1-3` [(R)-BPO-27, 6-(5-Bromofuran-2-yl)-7,9-dimethyl-8,10-dioxo-11-phenyl-7,8,9,10-tetrahydro-6H-benzo[b]pyrimido [4′,5′:3,4]pyrrolo [1,2-d][1,4]oxazine-2-carboxylic acid], in data set [1] (after apical CDCA 1 mM, (R)-BPO-27 10 μM, mean±S.E.M., n=3), the “change in short-circuit current after (R)-BPO-27” value is on record as −5.2±1.7 μA/cm^2. Moreover, in data set [1] (apical CDCA 1 mM, (R)-BPO-27 10 μM), the “reversal of CDCA-induced short-circuit current” value is on record as “fully reversed”. Moreover, the “reduction in loop fluid accumulation” value in data set [2] (closed colonic loops, CDCA 2.5, 10 mM) is about 70%; in data set [2] (setting [8]), 55%. Further, in data set [3] (rats receiving mid-colonic infusion of PBS, 10 mg/kg intraperitoneally), the “effect on stool quantity or water content” value is “does not affect”. For the same molecule, the “inhibition of the increase in stool water content” value in data set [3] (rats, mid-colonic CDCA infusion 10 mM, 10 mg/kg intraperitoneally 30 min before, stool over 4 hours) is given as about 55%. Further, the serum levels entry in data set [4] is “therapeutic serum levels for several hours”. Moreover, the “block of the increase in short-circuit current following CDCA application” value in data set [5] (T84 cells) is recorded as “fully blocked”. Moreover, the “block of secretory current produced by CDCA, DCA and their taurine conjugates” value in data set [5] (T84 cells, bile acids in apical and basolateral solutions, (R)-BPO-27 10 μM) is on record as “blocked”. For the same molecule, the IC50 in data set [5] (T84 cells, concentration-dependence studies, data not shown, read-out: IC50 for inhibition of CDCA-induced short-circuit current) was under 1000 nM. The “block of increased current after CDCA followed by forskolin” value in data set [5] (T84 cells, forskolin 10 μM, (R)-BPO-27 10 μM) was “fully blocked”. Further, the “inhibition of CDCA-activated apical CFTR Cl− current” value in data set [5] (basolateral membrane-permeabilized T84 monolayers, Cl− gradient, apical CDCA 0.75 or 1 mM, (R)-BPO-27 10 μM) is reported as “inhibition by (R)-BPO-27 is confirmed”. In data set [6] (apical CDCA, (R)-BPO-27 5 μM), the “reversal of CDCA-induced increase in short-circuit current” value is listed as “reversed”.
For `Cn1c(=O)c2c(-c3ccccc3)n3c(c2n(C)c1=O)[C@@H](c1ccc(Br)o1)Oc1ccc(C(=O)O)cc1-3` [(S)-BPO-27, 6-(5-Bromofuran-2-yl)-7,9-dimethyl-8,10-dioxo-11-phenyl-7,8,9,10-tetrahydro-6H-benzo[b]pyrimido [4′,5′:3,4]pyrrolo [1,2-d][1,4]oxazine-2-carboxylic acid, reference compound], in data set [2] (setting [8]), the “effect on loop fluid accumulation (in words)” value is recorded as “no significant effect”.
Take `CC(=O)OCOC(=O)CN(CC(=O)OCOC(C)=O)c1ccccc1OCCOc1ccccc1N(CC(=O)OCOC(C)=O)CC(=O)OCOC(C)=O` [BAPTA-AM, 1,2-Bis(2-aminophenoxy)ethane-N,N,N′,N′-tetraacetic acid tetrakis(acetoxymethyl ester), reference compound]: the “block of Ca2+ elevations” value in data set [7] is reported as “largely blocked”. Besides, the “block of CDCA-induced increase in short-circuit current by pretreatment” value in data set [5] (T84 cells, CDCA 1 mM, BAPTA-AM 30 μM pretreatment 25 min) is listed as “largely blocked”. In addition, the “reduction of CDCA-induced increase in short-circuit current by pretreatment” value in data set [6] (CDCA 0.5 mM, BAPTA-AM 30 μM pretreatment 20 min) is recorded as “greatly reduced”.
Consider `C[C@H](CCC(=O)O)[C@H]1CC[C@H]2[C@@H]3[C@H](O)C[C@@H]4C[C@H](O)CC[C@]4(C)[C@H]3CC[C@]12C` [CDCA, chenodeoxycholic acid, reference compound], for which the “increase in short-circuit current” value in data set [1] (CDCA 1 mM added to apical bathing solution, mean±S.E.M., n=3) came out at 5.2±1.4 μA/cm^2. The “increase in short-circuit current (in words)” value in data set [1] (CDCA added to basolateral bathing solution) is listed as “No increase in short-circuit current”. Also, the “increase in stool water content” value in data set [3] (rats, mid-colonic infusion of CDCA 10 mM, stool over 4 hours) is listed as about 25%. Besides, the “prosecretory response (increase in short-circuit current) to bile acid” value in data set [5] (T84 cells) is “robust secretory current”.
For `O=C(O)c1ccc(/C=C2\SC(=S)N(c3cccc(C(F)(F)F)c3)C2=O)cc1` [CFTRinh-172, 4-[[4-Oxo-2-thioxo-3-[3-(trifluoromethyl)phenyl]-5-thiazolidinylidene]methyl]benzoic acid, reference compound], the “block of the increase in short-circuit current following CDCA application” value in data set [5] (T84 cells) is “fully blocked”.
Turning to `C[C@H](CCC(=O)O)[C@H]1CC[C@H]2[C@@H]3[C@H](O)C[C@@H]4C[C@H](O)CC[C@]4(C)[C@H]3C[C@H](O)[C@]12C` [cholic acid, reference compound], in data set [5] (T84 cells), the “prosecretory response (increase in short-circuit current) to bile acid” value was “No increase in short-circuit current”.

The term IC50 denotes the concentration that inhibits the measured activity by half.

The record behind these values is patent US20220280514A1, “METHODS OF TREATING BILE ACID DIARRHEA” (THE REGENTS OF THE UNIVERSITY OF CALIFORNIA, priority 2019, published 2022).
